Reference: US6294564A, “Benzimidazoles and benzoxazoles” (Byk Gulden Lomberg Chemische Fabrik GmbH, priority 1998, dated 2001)

Tested on: PDE4
Test: Inhibition of PDE4 Activity (activity test according to Bauer and Schwabe adapted to microtitre plates)
Assay type: biochemical
Details: Inhibition of the PDE4 Activity; inhibitory concentration as -log IC50 (mol/l)

`COc1ccc(-c2nc3cc(C(=O)O)ccc3[nH]2)c2c1OC1(CCCC1)C2` [compound 1, 2-(2,3-Dihydro-7-methoxybenzofuran-2-spiro-1'-cyclopentan-4-yl)benzimidazole-5-carboxylic acid] and `COc1ccc(-c2nc3cc(C(N)=O)ccc3[nH]2)c2c1OC1(CCCC1)C2` [compound 2, 2-(2,3-Dihydro-7-methoxybenzofuran-2-spiro-1'-cyclopentan-4-yl)benzimidazole-5-carboxamide] are within 0.2 log units of each other in “-log IC50” value: 7.87 for the first, 7.69 for the second.

Compared with `COc1ccc(-c2nc3cc(C(=O)O)ccc3o2)c2c1OC1(CCCC1)C2` [compound 3, 2-(2,3-Dihydro-7-methoxybenzofuran-2-spiro-1'-cyclopentan-4-yl)benzoxazole-5-carboxylic acid], `COc1ccc(-c2nc3ccc(C(=O)O)cc3o2)c2c1OC1(CCCC1)C2` [compound 8, 2-(2,3-Dihydro-7-methoxybenzofuran-2-spiro-1'-cyclopentan-4-yl)benzoxazole-6-carboxylic acid] is higher in “-log IC50” value: 7.65 for the first, 8.21 for the second.

Going from `COc1ccc(-c2nc3cc(C(=O)O)ccc3o2)c2c1OC1(CCOCC1)C2` [compound 6, 2-(2,3-Dihydro-7-methoxybenzofuran-2-spiro-4'-tetrahydropyran-4-yl)benzoxazole-5-carboxylic acid] to `COc1ccc(-c2nc3ccc(C(=O)O)cc3o2)c2c1OC1(CCOCC1)C2` [compound 11, 2-(2,3-Dihydro-7-methoxybenzofuran-2-spiro-4'-tetrahydropyran-4-yl) benzoxazole-6-carboxylic acid], the “-log IC50” value falls from 7.05 to 6.85.

Going from `COc1ccc(-c2nc3cc(C(N)=O)ccc3o2)c2c1OC1(CCOCC1)C2` [compound 7, 2-(2,3-Dihydro-7-methoxybenzofuran-2-spiro-4'-tetrahydropyran-4-yl)benzoxazole-5-carboxamide] to `COc1ccc(-c2nc3ccc(C(N)=O)cc3o2)c2c1OC1(CCOCC1)C2` [compound 12, 2-(2,3-Dihydro-7-methoxybenzofuran-2-spiro-4'-tetrahydropyran-4-yl)benzoxazole-6-carboxamide], the “-log IC50” value falls from 6.80 to 6.42.

For `COc1ccc(-c2nc3ccc(C(=O)OCCN4CCOCC4)cc3o2)c2c1OC1(CCCC1)C2` [compound 9, 2-morpholin-4-ylethyl 2-(2,3-dihydro-7-methoxybenzofuran-2-spiro-1'-cyclopentan4-yl)-benzoxazole-6-carboxylate], the “-log IC50” value was 6.90.
